# Assays:
# SSTR2-tGFP = assay: Receptor internalization in U2OS-transfected cells (SSTR2-tGFP); type: cell-based, human; details: 3 h, high-content imaging, n = 3, method: percentage of activity relative to SST28 10^−6 M
# Experimental: (§1) Compounds were tested at five concentrations (10^−5, 10^−6, 10^−7, 10^−8, 10^−9 M) in comparison to untreated cells.
# (§2) SST agonists were added to U2OS recombinant cell lines in OptiMeM medium (Life technologies 51985-034, Monza, Italy) for 3 h (SSTR2, SSTR3) or 7 h (SSTR5) (n = 3). After formaldehyde fixation, nuclei were stained using DAPI (2 µg/mL), and the fluorescence was measured with BD Pathway 855 High-Content Bioimager from Becton Dickinson. The receptor internalization was calculated using AttoVision 1.6 Software. Approximately 500 cells per field were analyzed. […]
# (§3) (Invitrogen, Carlsbad, CA). Stable transfectants were selected in the presence of 500 µg/ml G-418. […]
# (§4) % picric acid in phosphate buﬀer (pH 6.9) for 30 minutes at room temperature (RT). […]
# (§5) 3.2. U2OS human cell lines transfected with human receptors (SSTR2-tGFP, SSTR3-tGFP,
# (§6) Compounds were tested at ﬁve d iﬀerent concentrations (10-5, 10-6, 10-7, 10-8, 10^-9 M) in comparison to untreated cells.
# (§7) U2OS recombinant cell lines were obtained from Innoprot (Derio, Spain). […] Nuclei were stained using DAPI (2 μg/ml) and the ﬂuorescence was measured using a BD Pathway 855 High-Content Bioimager from Becton Dickinson. The receptor internalization was calculated using AttoVision Software. […]
# (§8) Agonist activity of test compounds was calculated relatively to positive control
# SSTR3-tGFP = assay: Receptor internalization in U2OS-transfected cells (SSTR3-tGFP); type: cell-based, human; details: 3 h, high-content imaging, n = 3, method: percentage of activity relative to SST28 10^−6 M
# Experimental: as §1, §2, §3, §4, §5, §6, §7, §8
# SSTR5-tGFP = assay: Receptor internalization in U2OS-transfected cells (SSTR5-tGFP); type: cell-based, human; details: 7 h, high-content imaging, n = 3, method: percentage of activity relative to SST28 10^−6 M
# Experimental: as §1, §2, §3, §4, §5, §6, §7, §8
# SSTR2 = target: T1, SSTR2 (Homo sapiens, UniProt P30874); assay: SSTR2 phosphorylation, Western blot with phosphosite-specific antibodies, HEK293-transfected; type: cell-based; details: HEK293 stably expressing SSTR2, agonist 5 min 37 °C
# T1 construct: expressed in transfected cells
# Experimental: (§9) Western blot analysis was performed as previously described.
# (§10) Next, the activation of human SSTRs induced by SSAs was tested by Western blot using phosphosite-specific antibodies directed against the following residues: S341/pS343 for SSTR2; S337/T341 for SSTR3; T333 for SSTR5 [31].
# (§11) 4.1. Western blot analysis
# (§12) Western blot analysis was performed as previously described.7–9 Brieﬂy, HEK293 cells stably expressing the human somatostatin receptors were seeded onto poly-L-lysine-coated 60 mm dishes and grown to 90 % confluency. […]
# (§13) PierceTM HA epitope tag antibody beads (Thermo Scientific, Rockford, USA) were used to enrich HA-tagged somatostatin receptors or wheat germ lectin-agarose beads for no-tagged somatostatin receptors. To elute proteins from the beads, the samples were incubated in SDS sample buffer for 20 min at 60°C. Supernatants were separated from the beads, loaded on 8% SDS polyacrylamide gels and immunoblotted onto nitrocellulose membranes afterwards. After blocking, membranes were incubated with phosphorylation state-speciﬁc somatostatin receptor antibodies: pS337/pT341-SST3 (7TM0357A), […]
# (§14) Antibodies GmbH, Jena, Germany) at a dilution of 1:1000 at 4°C overnight. Membranes were incubated in HRP-linked secondary antibody for 2 hours, followed by detection using a chemiluminescence system (90 mM p-coumaric-acid, 250 mM luminol, 30% […]
# (§15) according to the manufacturer’s instructions.
# HA-SSTR3 = assay: SSTR3 phosphorylation, Western blot with phosphosite-specific antibodies, HEK293-transfected; type: cell-based, human; design: key: + = very low activity; ++ = low activity; +++ = high activity; ++++ = very high activity; details: HEK293 stably expressing HA-SSTR3, agonist 5 min 37 °C
# Experimental: as §9, §10, §11, §12, §13, §14, §15
# δ (DOP) (h) = assay: Single-dose binding assay on δ opioid receptor; design: species or system human; details: 10^−5 M
# µ (MOP) (h) = assay: Single-dose binding assay on µ opioid receptor; design: species or system human; details: 10^−5 M
# HA-SSTR2 = assay: SSTR2 internalization in HEK293 cells, confocal microscopy; type: cell-based, human; details: 1 µM agonist, 30 min 37 °C
# Experimental: HEK293 cells obtained from DSMZ (Braunschweig, Germany) were transfected with plasmid encoding […] HA-tagged SSTR2, SSTR3 or SSTR5 receptors.
# HEK293 cells stably expressing HA-tagged hSSTR cultures were preincubated with anti-HA antibody for 2 h at 4 °C and then exposed to 1 µM agonist for 30 min at 37 °C before fixing and further labeling with Alexa488-conjugated secondary antibody. After mounting with Roti®-MountFluorCare DAPI, cultures were examined using a Zeiss LSM510 META laser scanning confocal microscope (Zeiss, Jena, Germany) (see Supplementary Materials for details).
# GH produced by primary cultures was tested by ELISA assay using Rat Growth Hormone Biotrak Enzyme immunoassay Mouse/Rat Growth ELISA (DSL-10-72100) or Rat/Mouse Growth Hormone ELISA (Millipore EZRMGH-45K) diluting supernatants 1:20, according to manufacturer’s instructions. […]
# as §7, §8
# [1] = species, matrix, method and reference not given; cited from earlier work
# T1 sequence (P30874 whole entry): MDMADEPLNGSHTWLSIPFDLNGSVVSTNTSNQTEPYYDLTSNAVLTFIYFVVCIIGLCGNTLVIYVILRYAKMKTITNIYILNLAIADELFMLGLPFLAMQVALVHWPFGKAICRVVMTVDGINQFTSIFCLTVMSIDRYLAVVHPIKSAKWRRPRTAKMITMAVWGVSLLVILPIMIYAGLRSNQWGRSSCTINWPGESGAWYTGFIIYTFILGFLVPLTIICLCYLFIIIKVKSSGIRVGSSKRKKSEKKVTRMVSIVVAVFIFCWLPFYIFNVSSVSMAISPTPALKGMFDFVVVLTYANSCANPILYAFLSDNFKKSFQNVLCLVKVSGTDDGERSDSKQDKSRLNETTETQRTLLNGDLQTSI
smiles,measurement,setting,value
"COc1cc2cccc(OC)c2cc1C[C@H]1NC(=O)[C@H](Cc2ccc(O)cc2)NC(=O)[C@@H]2C[C@@H](OC(=O)NCCN)CN2C(=O)[C@H](Cc2ccccc2)NC(=O)[C@H](Cc2ccc(OCc3ccccc3)cc2)NC(=O)[C@H](CCCCN)NC1=O [ITF2984, Cyclo[Tyr(Bn)-Phe-Pro(4-OCONH(CH2)2NH2)-Tyr-3,8-diMeONal-Lys]]","Receptor internalization in U2OS-transfected cells, SSTR2, at 10^−5 M",SSTR2-tGFP; 10^−5 M,37.3
same,"Receptor internalization in U2OS-transfected cells, SSTR2, at 10^−6 M (value in brackets)",SSTR2-tGFP; 10^−6 M,35.9
same,"Receptor internalization in U2OS-transfected cells, SSTR3, at 10^−5 M",SSTR3-tGFP; 10^−5 M,61.1
same,"Receptor internalization in U2OS-transfected cells, SSTR3, at 10^−6 M (value in brackets)",SSTR3-tGFP; 10^−6 M,62.5
same,"Receptor internalization in U2OS-transfected cells, SSTR5, at 10^−5 M",SSTR5-tGFP; 10^−5 M,34.6
same,"Receptor internalization in U2OS-transfected cells, SSTR5, at 10^−6 M (value in brackets)",SSTR5-tGFP; 10^−6 M,42.0
same,Phosphorylation SSTR sites (HEK293-transfected): SSTR2—PS341/S343,SSTR2,++
same,Phosphorylation SSTR sites (HEK293-transfected): SSTR3—PS337/T341,HA-SSTR3,++++
same,Phosphorylation SSTR sites (HEK293-transfected): SSTR3—PT438,HA-SSTR3,++++
same,Percentage of inhibition of opioid receptor δ (DOP) (h) (agonist),δ (DOP) (h),79%
same,Percentage of inhibition of opioid receptor µ (MOP) (h) (agonist),µ (MOP) (h),97%
same,internalization of SSTR2 in transfected HEK293 cells,HA-SSTR2,partial internalization
same,Half-time life,[1],18 h

# Source: paper PMC10340464, “Identification of a Novel SSTR3 Full Agonist for the Treatment of Nonfunctioning Pituitary Adenomas” (Cancers, 2023)
